System: potato 5-lipoxygenase
Assay: Inhibition of potato 5-lipoxygenase, arachidonic acid oxidation, polarographic
Format: biochemical
Conditions: caffeic acid 0.33 mM final concentration, AA 313 2 mg.
Experimental: A reaction mixture containing 1050 units potato 5-lipoxygenase was subjected to the action of the known inhibitor caffeic acid as well as to 2 mg AA 313. Enzyme activity was tested by the ability of a sample of the reaction mixture to oxidize arachidonic acid (concentration of 0.33 mM). […] Enzyme activity was estimated polarographically.

% Inhibition: 64%
Enzyme activity (units) (control 1050 units): 375 units
Structure (SMILES): O=C(O)/C=C/c1ccc(O)c(O)c1 [caffeic acid]

Source: patent US5049380A, “Anti-allergic extract” (Bar-Ilan University, priority 1989, dated 1991)
